Assay results reported in patent publication US20030225065A1, “Bis-arylsulfones” (priority 2002, published 2003).
Structures can show the parent of a compound that is named as a salt.

Legend:
[1] = biological target: T1, cloned human 5-HT6 receptor (Homo sapiens, UniProt P50406); experiment: 5-HT6 receptor binding assay ([3H]-LSD radioligand, SPA beads, Hela cell membranes); conditions: IC50 converted to Ki by the Cheng-Prusoff equation
T1 construct: host or cells: HeLa cells (G-418 selection), membrane preparation
Description: Harvested intact cells are washed once in cold phosphate-buffered saline. The cells are pelleted and resuspended in 100 ml of cold 50 mM Tris, 5 mM EDTA and 5 mM EGTA, pH 7.4. Homogenization is with a Vir Tishear generator, 4 cycles for 30 seconds each at setting 50. The homogenized cells are centrifuged at 700 RPM (1000×g) for 10 minutes and the supernatant is removed. […] The rehomogenized cells are then centrifuged at 700 RPM (1000×g) for 10 minutes and the supernatant is removed. […] The membrane pellet is resupended in 50-8-ml of assay buffer containing HEPES 20 mM, MgCl2 10 mM, NaCl 150 mM, EDTA 1 mM, pH 7.4 and stored frozen in aliqouts at −70° C.
The radioligand binding assay used [^3H]-lysergic acid diethylamide (LSD). The assay is carried out in Wallac 96-well sample plates by the addition of 11 μl of the test sample at the appropriate dilution (the assay employed 11 serial concentrations of samples run in duplicate), 11 μl of radioligand, and 178 μl of a washed mixture of WGA-coated SPA beads and membranes in binding buffer. The plates are shaken for about 5 minutes and then incubated at room temperature for 1 hour. The plates are then loaded into counting cassettes and counted in a Wallac MicroBeta Trilux scintillation counter.
Eleven serial dilutions of test compounds are distributed to assay plates using the PE/Cetus Pro/Pette pipetter. […]

T1 sequence (P50406 whole entry): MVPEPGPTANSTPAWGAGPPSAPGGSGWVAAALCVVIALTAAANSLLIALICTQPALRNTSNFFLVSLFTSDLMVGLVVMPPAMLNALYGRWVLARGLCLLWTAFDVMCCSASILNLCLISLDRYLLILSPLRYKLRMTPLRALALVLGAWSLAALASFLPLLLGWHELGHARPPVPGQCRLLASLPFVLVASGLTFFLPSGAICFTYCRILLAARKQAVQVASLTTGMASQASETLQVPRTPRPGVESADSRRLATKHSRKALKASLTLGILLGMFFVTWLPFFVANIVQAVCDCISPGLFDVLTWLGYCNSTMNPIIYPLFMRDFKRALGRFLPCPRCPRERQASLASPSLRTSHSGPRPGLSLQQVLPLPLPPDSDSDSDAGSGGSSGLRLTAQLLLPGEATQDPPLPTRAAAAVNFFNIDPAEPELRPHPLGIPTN

Row | melting point [°C] | Ki [1] [nM] | SMILES
1 | 165 to 166 |  | Nc1cc(N2CCNCC2)ccc1S(=O)(=O)c1ccccc1 (as salt: salt) [Example 1, 2-(phenylsulfonyl)-5-(1-piperazinyl)phenylamine]
2 | 121 to 123 |  | CCNc1cc(N2CCNCC2)ccc1S(=O)(=O)c1ccccc1 (as salt: salt) [Example 13, N-ethyl-2-(phenylsulfonyl)-5-(1-piperazinyl) phenylamine]
3 | 90 to 93 |  | CN1CCN(c2ccc(S(=O)(=O)c3ccccc3)c(N)c2)CC1 [Example 7, 5-(4-methyl-1-piperazinyl)-2-(phenylsulfonyl) phenylamine]
4 |  | 2.7 | CCNc1cc(N2CCNCC2)ccc1S(=O)(=O)c1ccccc1 [Example 13, N-ethyl-2-(phenylsulfonyl)-5-(1-piperazinyl) phenylamine]

The remaining lines, values behind:

Row | SMILES | melting point [°C] | Ki [1] [nM]
5 | CNc1cc(N2CCCNCC2)ccc1S(=O)(=O)c1cccc(F)c1 (as salt: HCl) | 153 to 154 | 
6 | Nc1cc(N2CCCNCC2)ccc1S(=O)(=O)c1cccc(F)c1 (as salt: hydrochloride) [Example 2, 5-(1,4-diazepan-1-yl)-2-[(3-fluorophenyl)sulfonyl]phenylamine] | 106 to 108 | 
7 | Nc1cc(N2CCNCC2)ccc1S(=O)(=O)c1ccc(F)cc1 [Example 3, 2-[(4-fluorophenyl)sulfonyl]-5-(1-piperazinyl) phenylamine] | 144 to 146 | 
8 | CN1CCN(c2ccc(S(=O)(=O)c3ccc(F)cc3)c(N)c2)CC1 [Example 4, 2-[(4-fluorophenyl)sulfonyl]-5-(4-methyl-1-piperazinyl) phenylamine] | 85 to 89 | 
9 | Cc1ccc(S(=O)(=O)c2ccc(N3CCNCC3)cc2N)cc1 [Example 5, 2-[(4-methylphenyl)sulfonyl]-5-(1-piperazinyl) phenylamine] | 102 to 106 | 
10 | Cc1ccc(S(=O)(=O)c2ccc(N3CCN(C)CC3)cc2N)cc1 [Example 6, 2-[(4-methylphenyl)sulfonyl]-5-(4-methyl-1-piperazinyl) phenylamine] | 148 to 151 | 
11 | CN1CCN(c2ccc(S(=O)(=O)c3cccc(F)c3)c(N)c2)CC1 [Example 8, 2-[(3-fluorophenyl)sulfonyl]-5-(4-methyl-1-piperazinyl) phenylamine] | 89 to 92 | 
